Columns and labels:
STZ mice = assay: Hemorrhage and resuscitation protocol with Pseudomonas aeruginosa respiratory infection in STZ mice; format: in vivo; details: in response to Atglistatin treatment
Source text: How preventing hyperglycemia can aid recovery and improve survival will be investigated. STZ mice will be subjected to hemorrhage protocol described above, but then resuscitated by fluid replacement to perform a survival surgery. The metabolic status will be followed for up to three days and indices of wound repair and susceptibility to postoperative pneumonia was monitored (FIG. 1). Control and T1DM mice, treated with Atglistatin to inhibit lipolysis or vehicle, will be subjected to the hemorrhage and resuscitation protocol. The ability of Atglistatin to improve survival under baseline conditions, as well as improve wound healing and recovery, will be determined. In addition, it will be determined whether attenuating postoperative hyperglycemia via Atglistatin administration improves survival from postoperative pseudomonal pneumonia and/or improve indices of pneumonia. […] Animals will be monitored for several hours after surgery taking hourly blood glucose measurements. […] Lung injury will be assessed by albumin ELISA in the bronchoalveolar lavage (BAL) fluid. Bacterial counts will be performed in the lung and blood, flow cytometric analysis of BAL cells will be done to assess for leukocyte infiltration and function, and BAL fluid as well as serum will be analyzed for inflammatory cytokine release. […]

pancreatic lipase = biological target: T1, pancreatic lipase (Homo sapiens, UniProt P16233); details: cited from earlier work
T1 sequence (P16233 17-465): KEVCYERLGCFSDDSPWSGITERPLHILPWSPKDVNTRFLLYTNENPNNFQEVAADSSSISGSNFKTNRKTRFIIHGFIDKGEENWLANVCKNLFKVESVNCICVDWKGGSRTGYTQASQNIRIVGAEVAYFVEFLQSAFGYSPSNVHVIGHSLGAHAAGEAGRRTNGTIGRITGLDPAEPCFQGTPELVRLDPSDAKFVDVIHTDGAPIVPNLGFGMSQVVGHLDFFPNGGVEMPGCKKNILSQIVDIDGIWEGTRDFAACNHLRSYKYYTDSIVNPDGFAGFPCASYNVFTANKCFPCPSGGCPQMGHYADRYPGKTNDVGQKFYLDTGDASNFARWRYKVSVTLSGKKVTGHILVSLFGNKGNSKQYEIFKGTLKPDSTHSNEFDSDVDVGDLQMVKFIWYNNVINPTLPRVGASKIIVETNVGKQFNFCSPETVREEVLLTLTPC

PNPLA6 = biological target: T2, PNPLA6 (Homo sapiens, UniProt Q8IY17); details: cited from earlier work
T2 sequence (Q8IY17 1-1375): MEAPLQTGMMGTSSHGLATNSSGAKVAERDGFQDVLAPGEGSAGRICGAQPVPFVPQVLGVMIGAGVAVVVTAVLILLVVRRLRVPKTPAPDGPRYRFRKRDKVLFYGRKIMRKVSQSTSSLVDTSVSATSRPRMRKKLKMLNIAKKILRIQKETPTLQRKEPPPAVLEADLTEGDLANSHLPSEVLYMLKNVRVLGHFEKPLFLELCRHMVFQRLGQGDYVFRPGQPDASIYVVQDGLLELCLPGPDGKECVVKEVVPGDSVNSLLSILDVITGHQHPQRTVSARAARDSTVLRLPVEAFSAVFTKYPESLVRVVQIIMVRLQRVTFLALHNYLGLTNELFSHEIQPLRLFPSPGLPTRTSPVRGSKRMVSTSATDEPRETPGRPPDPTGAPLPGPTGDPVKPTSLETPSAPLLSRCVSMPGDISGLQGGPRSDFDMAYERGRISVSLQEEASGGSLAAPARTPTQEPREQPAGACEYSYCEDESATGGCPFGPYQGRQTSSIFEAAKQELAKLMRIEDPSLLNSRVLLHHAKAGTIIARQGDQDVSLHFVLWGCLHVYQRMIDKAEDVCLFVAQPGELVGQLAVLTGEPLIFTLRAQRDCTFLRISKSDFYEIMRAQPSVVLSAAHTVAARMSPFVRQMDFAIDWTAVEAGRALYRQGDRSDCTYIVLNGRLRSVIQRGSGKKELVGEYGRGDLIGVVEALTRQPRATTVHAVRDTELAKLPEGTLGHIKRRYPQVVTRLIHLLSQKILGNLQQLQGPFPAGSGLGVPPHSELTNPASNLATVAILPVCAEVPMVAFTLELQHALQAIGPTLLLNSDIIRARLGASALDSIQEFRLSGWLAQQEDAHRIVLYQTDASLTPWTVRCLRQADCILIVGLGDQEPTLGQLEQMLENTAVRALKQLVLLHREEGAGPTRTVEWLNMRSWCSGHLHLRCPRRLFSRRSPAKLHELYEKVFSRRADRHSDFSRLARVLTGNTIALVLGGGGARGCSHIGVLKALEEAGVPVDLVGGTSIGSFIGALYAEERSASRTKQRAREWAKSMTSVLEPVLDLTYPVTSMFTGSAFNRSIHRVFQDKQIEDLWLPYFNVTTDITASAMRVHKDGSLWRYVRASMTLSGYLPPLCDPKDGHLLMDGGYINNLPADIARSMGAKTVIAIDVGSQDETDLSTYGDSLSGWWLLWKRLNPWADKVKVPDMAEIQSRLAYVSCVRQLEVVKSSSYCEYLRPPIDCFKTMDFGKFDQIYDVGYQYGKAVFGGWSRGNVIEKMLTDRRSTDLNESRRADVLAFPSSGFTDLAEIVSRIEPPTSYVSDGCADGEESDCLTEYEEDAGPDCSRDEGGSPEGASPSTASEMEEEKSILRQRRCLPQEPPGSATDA

PNPLA7 = PNPLA7 (Homo sapiens, UniProt Q6ZV29); details: cited from earlier work
lipolysis by ATGL = details: in vitro; cited from earlier work
[1] = tested on: white adipose tissue organ cultures; details: cited from earlier work

PNPLA7, sequence (Q6ZV29 whole entry, species assumed): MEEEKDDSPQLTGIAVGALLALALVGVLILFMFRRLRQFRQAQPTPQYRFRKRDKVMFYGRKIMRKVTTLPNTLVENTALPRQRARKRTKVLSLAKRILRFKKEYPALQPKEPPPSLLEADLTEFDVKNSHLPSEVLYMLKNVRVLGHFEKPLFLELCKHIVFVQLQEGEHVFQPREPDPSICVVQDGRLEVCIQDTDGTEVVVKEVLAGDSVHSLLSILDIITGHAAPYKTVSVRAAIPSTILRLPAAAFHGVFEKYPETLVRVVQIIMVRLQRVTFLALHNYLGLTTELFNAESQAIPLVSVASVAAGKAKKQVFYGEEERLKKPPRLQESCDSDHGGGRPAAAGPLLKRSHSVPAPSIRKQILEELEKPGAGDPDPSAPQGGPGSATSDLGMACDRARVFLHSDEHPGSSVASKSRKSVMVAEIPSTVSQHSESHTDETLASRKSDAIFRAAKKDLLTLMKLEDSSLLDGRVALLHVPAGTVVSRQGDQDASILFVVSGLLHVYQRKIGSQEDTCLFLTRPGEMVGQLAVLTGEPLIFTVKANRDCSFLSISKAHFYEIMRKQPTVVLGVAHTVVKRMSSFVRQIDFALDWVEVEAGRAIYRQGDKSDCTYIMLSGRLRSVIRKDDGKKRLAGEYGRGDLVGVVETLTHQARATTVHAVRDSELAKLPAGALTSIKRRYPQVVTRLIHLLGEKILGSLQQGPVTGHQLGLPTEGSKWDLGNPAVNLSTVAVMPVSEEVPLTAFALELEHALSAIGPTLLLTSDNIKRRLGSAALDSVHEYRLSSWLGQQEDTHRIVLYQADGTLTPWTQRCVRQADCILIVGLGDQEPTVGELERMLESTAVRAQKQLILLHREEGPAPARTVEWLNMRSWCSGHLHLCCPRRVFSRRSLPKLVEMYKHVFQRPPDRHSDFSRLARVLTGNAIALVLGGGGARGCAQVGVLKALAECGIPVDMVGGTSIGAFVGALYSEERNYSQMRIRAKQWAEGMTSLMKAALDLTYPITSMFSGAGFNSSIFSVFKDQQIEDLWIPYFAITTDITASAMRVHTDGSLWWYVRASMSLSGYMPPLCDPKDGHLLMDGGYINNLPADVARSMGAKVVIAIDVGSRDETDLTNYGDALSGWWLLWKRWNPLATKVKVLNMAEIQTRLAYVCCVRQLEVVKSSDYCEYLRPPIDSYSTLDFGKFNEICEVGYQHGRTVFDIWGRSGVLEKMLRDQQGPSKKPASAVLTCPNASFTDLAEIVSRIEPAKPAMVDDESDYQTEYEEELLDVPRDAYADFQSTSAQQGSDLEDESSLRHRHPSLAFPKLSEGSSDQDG

CN(C)C(=O)Nc1cccc(-c2ccc(N(C)C)cc2)c1 [Atglistatin, N′-[4′-(dimethylamino) [1,1′-biphenyl]-3-yl]-N,N-dimethyl-urea]
immune cell function (STZ mice): restored to levels comparable with normoglycemic mice | inhibition of pancreatic lipase (pancreatic lipase): does not inhibit | inhibition of PNPLA6 (PNPLA6): does not inhibit | inhibition of PNPLA7 (PNPLA7): does not inhibit | lipolysis by ATGL (fatty acid mobilization) (lipolysis by ATGL): blocks lipolysis | lipolysis by ATGL (fatty acid mobilization) [1]: blocks lipolysis

Source: patent US20180256623A1, “COMPOSITIONS AND METHOD FOR REGULATING ADIPOSE TISSUE LIPOLYSIS, INSULIN-RESISTANCE, AND HYPERGLYCEMIA” (University of Virginia Patent Foundation, priority 2015, published 2018)
